Laboratory results reported in US4851536A, “Cyclohexylquinolines as inhibitors of interleukin 1” (American Home Products Corporation, priority 1988, dated 1989).

What was measured:
[1] = system: IL 1-induced release of neutral protease from rabbit articular chondrocytes; assay: Inhibition of IL 1-induced release of neutral protease from rabbit articular chondrocytes (% inhibition of protease secretion, azocoll degradation); type: cell-based, rabbit (male New Zealand White); settings: Oryctolagus cuniculus, Chondrocyte, test compound 10 minutes prior to IL 1, 24 hours after IL 1 stimulation
Protocol: The ability of the compounds of the inventions to inhibit interleukin 1 is measured by the ability of the test compounds to inhibit the IL 1-induced release of neutral protease from rabbit articular chondrocytes.
This assay is carried out as follows:
Isolation of rabbit chondrocytes:
Male New Zealand White rabbits are anesthetized with 50 mg/kg of ketamine (i.m.) and killed by an intracardiac injection of 3 mls of Nembutal. The knee joints of both legs are resected and the articular surfaces are exposed. Cartilage slices are obtained using a scalpel and are placed in a tissue culture dish (100 mm diameter) containing 10 mls of Hank's balanced salt solution (HBSS). The chondrocytes within the cartilage slices are then liberated by a series of enzyme digestions. The slices are incubated for 10 minutes at 37° C. in 0.05% hyaluronidase (Sigma H-3884), rinsed with HBSS and incubated with 0.2% trypsin (Sigma T-2395) for 10 minutes at 37° C. The slices are rinsed again and incubated for 10 minutes at 37° C. with 1.2% collagenase (Sigma C-5138). The slices are then rinsed again with HBSS and resuspended in 10 ml of Ham's F-12 medium containing 10% fetal bovine calf serum (FCS) and 0.2% collagenase and incubated overnight at 37° C. in a 5% CO2 incubator. The next day, the medium containing the digested cartilage fragments and liberated chondrocytes is transferred to a 15 ml centrifuge tube and the cells are collected by centrifugation and washed twice and resuspended in Ham's F-12 medium. The cells are then plated into 24-well tissue culture plates (2×10^5 cells/well) and incubated at 37° C. until confluent (usually 4-6 days).
Stimulation of chondrocytes and drug treatment
The confluent chondrocytes are rinsed twice with serum-free Ham's F-12 medium and 1 ml is added to each well. Fifty μl of purified human IL 1 (100 Units/ml; Genzyme Corporation, Boston, MA) is then added to stimulate these cells to secrete neutral protease. To measure drug effects, the cells are treated with test compound 10 minutes prior to additon of IL 1. The standard screening dose is 10 μM. Twenty-four hours after IL 1 stimulation, supernatant fluids are collected and assayed for neutral protease activity.
The neutral protease activity of chondrocyte supernatant fluids is determined by their ability to degrade an insoluble protease substrate, azocoll (Sigma). Supernatants are treated for 10 minutes at room temperature with 350 μM p-aminophenylmurcuric acetate to activate the latent enzyme. Three hundred μl of supernatant is then mixed with 500 μl of a 20 mg/ml suspension of azocoll and incubated at 37° C. for 18-24 hours with gentle rocking. The mixtures are centrifuged and the amount of substrate hydrolyzed is determined by measuring the absorbance of the supernatant at 520 nm.
Drug effects are calculated as the % change in enzyme activity (absorbance)by supernatants from drug-treated chondrocytes relative to enzyme activity of supernatants from vehicle-treated chondrocytes as follows:
% Inhibition of Protease Secretion= [formula]

[2] = system: IL 1-induced release of neutral protease from rabbit articular chondrocytes; assay: as above; type: cell-based, rabbit (male New Zealand White); settings: Oryctolagus cuniculus, Chondrocyte, test compound 10 minutes prior to IL 1, 24 hours after IL 1 stimulation; remark: listed apart in the source

**Q.** With Clc1ccc2c(NNc3ccccc3)c3c(nc2c1)CCC(c1ccccc1)C3 (stereo not shown) [Example 3B, 6-Chloro-1,2,3,4-tetrahydro-2-phenyl-9-(2-phenylhydrazino)acridine] as the compound, how does the inhibition at 10 µM [1] read?
**A.** 81 ± 2%

**Q.** And the inhibition at 1 µM [2]?
**A.** 27%

**Q.** How did the inhibition at 10 µM [1] turn out when O=S1(=O)CCc2nc3cc(Cl)ccc3c(NNc3ccccc3)c2C1 [Example 8, 7-Chloro-3,4-dihydro-10-(2-phenylhydrazino)-1H-thiopyrano[4,3-b]quinoline 2,2-dioxide] was run?
**A.** 16%

**Q.** What about the inhibition at 1 µM [2] of the same compound?
**A.** 3%

**Q.** And the inhibition at 5 µM [2]?
**A.** 37%

**Q.** COC(=O)C1CCc2nc3cc(Cl)ccc3c(Cl)c2C1 (stereo not shown) [Example 9, 6,9-Dichloro-1,2,3,4-tetrahydro-2-acridinecarboxylic acid methyl ester] was tested. Which inhibition at 10 µM [1] did it give?
**A.** 58%

**Q.** And the inhibition at 1 µM [2]?
**A.** 30%

**Q.** What about the inhibition at 5 µM [2] of the same compound?
**A.** 53%

**Q.** With O=S1(=O)CCc2nc3cc(Cl)ccc3c(Cl)c2C1 [Example 7, 7,10-Dichloro-3,4-dihydro-1H-thiopyrano[4,3-b]quinoline 2,2-dioxide] as the compound, how does the inhibition at 10 µM [1] read?
**A.** 25%

**Q.** What about the inhibition at 1 µM [2] of the same compound?
**A.** 10%

**Q.** And the inhibition at 5 µM [2]?
**A.** 26%

**Q.** How did the inhibition at 10 µM [1] turn out when c1ccc(NNc2c3c(nc4ccccc24)CCSC3)cc1 [Example 5, 3,4-Dihydro-10-(2-phenylhydrazino)-1H-thiopyrano[4,3-b]quinoline, three-quarters hydrate] was run?
**A.** 79 ± 14%

**Q.** And the inhibition at 1 µM [2]?
**A.** 37%

**Q.** What about the inhibition at 5 µM [2] of the same compound?
**A.** 55 ± 22%

**Q.** With Clc1c2c(nc3ccccc13)CCSC2 [Example 4, 10-Chloro-3,4-dihydro-1H-thiopyrano[4,3-b]quinoline] as the compound, how does the inhibition at 10 µM [1] read?
**A.** 43%

**Q.** And the inhibition at 1 µM [2]?
**A.** 38%

**Q.** What about the inhibition at 5 µM [2] of the same compound?
**A.** 46%

**Q.** Which inhibition at 10 µM [1] does the source give for O=C(O)C1CCc2nc3cc(Cl)ccc3c(Cl)c2C1 (stereo not shown) [Example 11, 6,9-Dichloro-1,2,3,4-tetrahydro-2-acridinecarboxylic acid] here?
**A.** 88%

**Q.** And the inhibition at 0.1 µM [2]?
**A.** 58%

**Q.** What about the inhibition at 1 µM [2] of the same compound?
**A.** 50%

**Q.** For Clc1ccc2c(Cl)c3c(nc2c1)CCC(c1ccccc1)C3 (stereo not shown) [Example 3A, 6,9-Dichloro-1,2,3,4-tetrahydro-2-phenylacridine, hemihydrate], which inhibition at 10 µM [1] is on record?
**A.** ≤ 20%

**Q.** For O=S1(=O)CCc2nc3ccccc3c(Cl)c2C1 [Example 6, 10-Chloro-3,4-dihydro-1H-thiopyrano[4,3-b]quinoline 2,2-dioxide], which inhibition at 10 µM [1] is on record?
**A.** 32%

**Q.** What about the inhibition at 5 µM [2] of the same compound?
**A.** 19%

**Q.** Clc1ccc2c(Cl)c3c(nc2c1)CCSC3 [Example 1A, 7,10-Dichloro-3,4-dihydro-1H-thiopyrano[4,3-b]quinoline] was tested. Which inhibition at 10 µM [1] did it give?
**A.** 35 ± 11%

**Q.** CC1CCc2nc3cc(Cl)ccc3c(NNc3ccccc3)c2C1 (stereo not shown) [Example 2B, 6-Chloro-1,2,3,4-tetrahydro-2-methyl-9-(2-phenylhydrazino)acridine] was tested. Which inhibition at 10 µM [1] did it give?
**A.** 85 ± 6%

**Q.** What about the inhibition at 1 µM [2] of the same compound?
**A.** 36%

**Q.** Which inhibition at 10 µM [1] does the source give for O=C(O)C1CCc2nc3cc(Cl)ccc3c(NNc3ccccc3)c2C1 (stereo not shown) [Example 12, 6-Chloro-1,2,3,4-tetrahydro-9-(2-phenylhydrazino)-2-acridinecarboxylic acid hemihydrate] here?
**A.** 68%

**Q.** And the inhibition at 0.1 µM [2]?
**A.** 57%

**Q.** And the inhibition at 1 µM [2]?
**A.** 61%

**Q.** How did the inhibition at 10 µM [1] turn out when CC1CCc2nc3cc(Cl)ccc3c(Cl)c2C1 (stereo not shown) [Example 2A, 6,9-Dichloro-1,2,3,4-tetrahydro-2-methylacridine, quarter hydrate] was run?
**A.** 34 ± 26%

**Q.** Which results are given for CCOC(=O)C1CCc2nc3cc(Cl)ccc3c(NNc3ccccc3)c2C1 (stereo not shown) [Example 10, 6-Chloro-1,2,3,4-tetrahydro-9-(2-phenylhydrazino)-2-acridinecarboxylic acid ethyl ester]?
**A.** inhibition at 10 µM [1]: 96%; inhibition at 0.1 µM [2]: 70%; inhibition at 1 µM [2]: 91%

**Q.** Clc1ccc2c(NNc3ccccc3)c3c(nc2c1)CCSC3 [Example 1B, 7-Chloro-3,4-dihydro-10-(2-phenylhydrazino)-1H-thiopyrano[4,3-b]quinoline] was tested. Which inhibition at 10 µM [1] did it give?
**A.** 98 ± 1%

**Q.** And the inhibition at 0.1 µM [2]?
**A.** 67%

**Q.** What about the inhibition at 1 µM [2] of the same compound?
**A.** 94%

**Q.** What about the inhibition at 5 µM [2] of the same compound?
**A.** 93 ± 5%
